Consider 26 compounds from patent US11590116B2 (THERAVANCE BIOPHARMA R&D IP, LLC, priority 2019, dated 2023).

Some results are limits rather than exact numbers.

The target in experiment [1] is T1, recombinant human ALK5 (TGF-βR1) protein (Homo sapiens, UniProt P36897).
T1 construct: purchased Life Technologies PR9075A
T1 sequence (P36897 34-503): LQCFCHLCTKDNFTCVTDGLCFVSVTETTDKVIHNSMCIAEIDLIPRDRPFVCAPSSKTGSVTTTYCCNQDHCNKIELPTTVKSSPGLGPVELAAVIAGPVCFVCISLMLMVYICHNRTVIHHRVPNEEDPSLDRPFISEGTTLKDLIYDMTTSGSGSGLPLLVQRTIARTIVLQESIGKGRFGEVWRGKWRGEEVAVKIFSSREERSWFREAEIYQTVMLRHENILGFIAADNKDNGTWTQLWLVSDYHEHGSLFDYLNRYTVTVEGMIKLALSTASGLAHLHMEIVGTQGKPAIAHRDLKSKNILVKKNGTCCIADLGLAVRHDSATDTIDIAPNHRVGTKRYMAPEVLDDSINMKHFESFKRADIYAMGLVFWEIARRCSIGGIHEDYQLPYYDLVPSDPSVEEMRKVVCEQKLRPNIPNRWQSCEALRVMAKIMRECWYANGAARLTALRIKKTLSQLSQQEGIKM
The experiment is described as follows: Biochemical ALK5 (TGF-βR1) assay to measure pKi (LANCE Ultra ULight kinase assay). The conditions noted are these: apparent pKi from pIC50 by Cheng-Prusoff, read-out: ALK5 pKi (converted). In a few lines:
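After a 60 min room-temperature preincubation of ALK5 with compound, phosphorylation proceeds 60 min at 37 °C on ATP addition (125 μM as 5× stock). Detection: Eu-labelled phospho-Thr1342 Topo IIα antibody in EDTA buffer, pH 7.0; emission 665 nm.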
On the technique in general: In TR-FRET formats the signal depends on donor and acceptor labels being close together.

The test system of experiment [2] is TGF-β-stimulated SMAD3 phosphorylation in BEAS-2B cells. The experiment in a line: Cellular ALK5 potency assay, inhibition of TGF-β stimulated pSMAD3 formation in BEAS-2B cells. The experiment is classed as cell-based. The conditions noted are these: Homo sapiens; inhibition of TGF-β stimulated pSMAD3 formation, BEAS-2B cells; read-out: BEAS2B pIC50 (converted). The essentials:
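SMAD3 phosphorylation was measured by AlphaLISA after 30 min TGF-β stimulation (10 ng/mL final) of BEAS-2B cells preincubated 1 h with compound at 37 °C. Results given as pIC50.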

With `CNC(=O)c1ccnc2ccc(-c3c[nH]nc3-c3cccc(C)n3)nc12` [Compound 818, N-methyl-6-[5-(6-methyl-2-pyridyl)-1H-pyrazol-4-yl]-1,5-naphthyridine-4-carboxamide], the Ki in experiment [1] was 0.0398 to 0.316 nM. In addition, the IC50 in experiment [2] is 25.1 to 158 nM.
The matching figures for `Cc1cccc(-c2[nH]cnc2-c2ccc3ncc(-c4csc(C(=O)O[C@@H]5CCNC5)c4)cc3c2)n1` [Compound 749, [(3R)-pyrrolidin-3-yl] 4-[6-[5-(6-methyl-2-pyridyl)-1H-imidazol-4-yl]-3-quinolyl]thiophene-2-carboxylate]: < 0.0316 nM and 25.1 to 158 nM.
The matching figures for `Cc1cccc(-c2n[nH]cc2-c2ccc3ncc(CCCN4CCN(C(C)C)CC4)cc3n2)n1` [Compound 615, 7-[3-(4-isopropylpiperazin-1-yl)propyl]-2-[3-(6-methyl-2-pyridyl)-1H-pyrazol-4-yl]-1,5-naphthyridine]: 0.0398 to 0.316 nM and 25.1 to 158 nM.
Taken in the same sequence, the figures for `Cc1cccc(-c2[nH]cnc2-c2ccc3ncc(C4=CCC(N)CC4)cc3n2)n1` (stereo not shown) [Compound 149, 4-[6-[5-(6-methyl-2-pyridyl)-1H-imidazol-4-yl]-1,5-naphthyridin-3-yl]cyclohex-3-en-1-amine] were < 0.0316 nM and 25.1 to 158 nM.
In the case of `Cc1cccc(-c2[nH]cnc2-c2ccc3ncc(N4CC5(CC(N)C5)C4)cc3c2)n1` [Compound 624, 2-[6-[5-(6-methyl-2-pyridyl)-1H-imidazol-4-yl]-3-quinolyl]-2-azaspiro[3.3]heptan-6-amine], the Ki in experiment [1] is 0.0398 to 0.316 nM. Besides, the IC50 in experiment [2] was 25.1 to 158 nM.
Taken in the same sequence, the figures for `Cc1cccc(-c2n[nH]cc2-c2ccc3nccc(NCC(=O)N4CCOCC4)c3n2)n1` [Compound 825, 2-[[6-[3-(6-methyl-2-pyridyl)-1H-pyrazol-4-yl]-1,5-naphthyridin-4-yl]amino]-1-morpholino-ethanone] were 0.398 to 3.16 nM and 25.1 to 158 nM.
Taken in the same sequence, the figures for `Cc1cccc(-c2n[nH]cc2-c2ccc3nccc(C4CO[C@H]5CNC[C@@H]5N4)c3n2)n1` (mixture of isomers) [Compound 861, rac-(4aS,7aS)-3-[6-[3-(6-methyl-2-pyridyl)-1H-pyrazol-4-yl]-1,5-naphthyridin-4-yl]-2,3,4,4a,5,6,7,7a-octahydropyrrolo[3,4-b][1,4]oxazine] were 3.98 to 31.6 nM and 200 to 1260 nM.
The matching figures for `Cc1cccc(-c2[nH]cnc2-c2ccc3ncc(N4CCN(C)C(CC(=O)O[C@@H]5CCNC5)C4)cc3c2)n1` (stereo partly drawn) [Compound 344, [(3R)-pyrrolidin-3-yl]2-[1-methyl-4-[6-[5-(6-methyl-2-pyridyl)-1H-imidazol-4-yl]-3-quinolyl]piperazin-2-yl]acetate]: 0.0398 to 0.316 nM and 200 to 1260 nM.
Take `CCN1CCN(c2cnc3ccc(-c4c[nH]nc4-c4cccc(C)n4)nc3c2)CC1` [Compound 390, 7-(4-ethylpiperazin-1-yl)-2-[3-(6-methyl-2-pyridyl)-1H-pyrazol-4-yl]-1,5-naphthyridine]: the Ki in experiment [1] was 0.0398 to 0.316 nM. Also, the IC50 in experiment [2] is 25.1 to 158 nM.
Taken in the same sequence, the figures for `Cc1cccc(-c2[nH]nnc2-c2ccc3ncc(N4CCNCC4)cc3n2)n1` [Compound 479, 2-[5-(6-methyl-2-pyridyl)-1H-triazol-4-yl]-7-piperazin-1-yl-1,5-naphthyridine] were 0.398 to 3.16 nM and 200 to 1260 nM.
The matching figures for `CCOC(=O)CN1CCN(Cc2ccnc3ccc(-c4c[nH]nc4-c4cccc(C)n4)nc23)CC1` [Compound 821, ethyl 2-[4-[[6-[3-(6-methyl-2-pyridyl)-1H-pyrazol-4-yl]-1,5-naphthyridin-4-yl]methyl]piperazin-1-yl]acetate]: 0.398 to 3.16 nM and 25.1 to 158 nM.
As for `Cc1cccc(-c2[nH]cnc2-c2ccc3ncc(NC[C@@H]4CCCN4)cc3c2)n1` [Compound 679, 6-[5-(6-methyl-2-pyridyl)-1H-imidazol-4-yl]-N-[[(2S)-pyrrolidin-2-yl]methyl]quinolin-3-amine], the Ki in experiment [1] is 0.0398 to 0.316 nM. Moreover, the IC50 in experiment [2] is 200 to 1260 nM.
Taken in the same sequence, the figures for `Cc1cccc(-c2n[nH]cc2-c2ccc3ncc(-c4ccncc4)cc3n2)n1` [Compound 565, 2-[3-(6-methyl-2-pyridyl)-1H-pyrazol-4-yl]-7-(4-pyridyl)-1,5-naphthyridine] were < 0.0316 nM and < 20 nM.
Consider `Cc1cccc(-c2[nH]ncc2-c2ccc3ncc(C(=O)O[C@H]4CCNC4)cc3n2)n1` [Compound 210, [(3S)-pyrrolidin-3-yl]6-[5-(6-methyl-2-pyridyl)-1H-pyrazol-4-yl]-1,5-naphthyridine-3-carboxylate], for which the Ki in experiment [1] was 0.398 to 3.16 nM. Moreover, the IC50 in experiment [2] was 25.1 to 158 nM.
As for `Cc1cccc(-c2[nH]cnc2-c2ccc3ncc(C(=O)OCCCC4CNC4)cc3c2)n1` [Compound 1090, 3-(azetidin-3-yl)propyl 6-[5-(6-methyl-2-pyridyl)-1H-imidazol-4-yl]quinoline-3-carboxylate], the Ki in experiment [1] is 0.0398 to 0.316 nM. In addition, in experiment [2], the IC50 is 200 to 1260 nM.
Taken in the same sequence, the figures for `Cc1cccc(-c2n[nH]cc2-c2ccc3ncc(NC(=O)CCCN4CCOCC4)cc3n2)n1` [Compound 358, N-[6-[3-(6-methyl-2-pyridyl)-1H-pyrazol-4-yl]-1,5-naphthyridin-3-yl]-4-morpholino-butanamide] were 0.0398 to 0.316 nM and 25.1 to 158 nM.
Regarding `Cc1cccc(-c2[nH]ncc2-c2ccc3ncc(C(=O)OCCN4CCN5CCCC5C4)cc3c2)n1` (stereo not shown) [Compound 1234, 2-(3,4,6,7,8,8a-hexahydro-1H-pyrrolo[1,2-a]pyrazin-2-yl)ethyl 6-[5-(6-methyl-2-pyridyl)-1H-pyrazol-4-yl]quinoline-3-carboxylate], the Ki in experiment [1] is 0.0398 to 0.316 nM. In experiment [2], the IC50 is 25.1 to 158 nM.
In the case of `Cc1nc(-c2n[nH]cc2-c2ccc3ncc(-c4cnn(C[C@H]5CCC[C@@H](N)C5)c4)cc3n2)ccc1F` (racemic) [Compound 463, rac-(1R,3S)-3-[[4-[6-[3-(5-fluoro-6-methyl-2-pyridyl)-1H-pyrazol-4-yl]-1,5-naphthyridin-3-yl]pyrazol-1-yl]methyl]cyclohexanamine], the Ki in experiment [1] was < 0.0316 nM. For the same compound, the IC50 in experiment [2] is 25.1 to 158 nM.
Taken in the same sequence, the figures for `Cc1cccc(-c2[nH]cnc2-c2ccc3ncc(C4=CC[C@@H](N)CC4)cc3c2)n1` [Compound 171, (1S)-4-[6-[5-(6-methyl-2-pyridyl)-1H-imidazol-4-yl]-3-quinolyl]cyclohex-3-en-1-amine] were < 0.0316 nM and < 20 nM.
The matching figures for `Cc1cccc(-c2[nH]cnc2-c2ccc3ncc(C4=CCC(N(C)C)CC4)cc3n2)n1` (stereo not shown) [Compound 452, N,N-dimethyl-4-[6-[5-(6-methyl-2-pyridyl)-1H-imidazol-4-yl]-1,5-naphthyridin-3-yl]cyclohex-3-en-1-amine]: < 0.0316 nM and 25.1 to 158 nM.
Taken in the same sequence, the figures for `Cc1nc(-c2n[nH]cc2-c2ccc3ncc(N4CCC(N5CCCC5)CC4)cc3n2)ccc1F` [Compound 114, 2-[3-(5-fluoro-6-methyl-2-pyridyl)-1H-pyrazol-4-yl]-7-(4-pyrrolidin-1-yl-1-piperidyl)-1,5-naphthyridine] were < 0.0316 nM and 25.1 to 158 nM.
For `Cc1cccc(-c2n[nH]cc2-c2ccc3ncc(N4CCC(N5CCCC5)C4)cc3n2)n1` (stereo not shown) [Compound 336, 2-[3-(6-methyl-2-pyridyl)-1H-pyrazol-4-yl]-7-(3-pyrrolidin-1-ylpyrrolidin-1-yl)-1,5-naphthyridine], the Ki in experiment [1] is < 0.0316 nM. Further, in experiment [2], the IC50 was 25.1 to 158 nM.
Regarding `CNC(=O)[C@H]1CN(c2cnc3ccc(-c4nc[nH]c4-c4cccc(C)n4)cc3c2)CCN1` [Compound 376, (2R)-N-methyl-4-[6-[5-(6-methyl-2-pyridyl)-1H-imidazol-4-yl]-3-quinolyl]piperazine-2-carboxamide], the Ki in experiment [1] is 0.0398 to 0.316 nM. Besides, in experiment [2], the IC50 is 200 to 1260 nM.
For `Cc1cccc(-c2n[nH]cc2-c2ccc3nccc(N(C)CCCN4CCOCC4)c3n2)n1` [Compound 848, N-methyl-6-[3-(6-methyl-2-pyridyl)-1H-pyrazol-4-yl]-N-(3-morpholinopropyl)-1,5-naphthyridin-4-amine], the Ki in experiment [1] is 0.0398 to 0.316 nM. Besides, the IC50 in experiment [2] was 200 to 1260 nM.
The matching figures for `CNC1CCN(c2cnc3ccc(-c4c[nH]nc4-c4cccc(C)n4)nc3c2)CC1` [Compound 45, N-methyl-1-[6-[3-(6-methyl-2-pyridyl)-1H-pyrazol-4-yl]-1,5-naphthyridin-3-yl]piperidin-4-amine]: < 0.0316 nM and 25.1 to 158 nM.
Taken in the same sequence, the figures for `Cc1cccc(-c2n[nH]cc2-c2ccc3ncc(-c4nc5n(n4)CCNC5)cc3n2)n1` [Compound 67, 2-[3-(6-methyl-2-pyridyl)-1H-pyrazol-4-yl]-7-(5,6,7,8-tetrahydro-[1,2,4]triazolo[1,5-a]pyrazin-2-yl)-1,5-naphthyridine] were 0.0398 to 0.316 nM and 25.1 to 158 nM.
